What all share (type): functional
Assay [1] deals with Staphylococcus aureus. Briefly: Antibacterial activity against methicillin-resistant Staphylococcus aureus 21-5 by CLSI based serial dilution method.
Assay [2] relates to Escherichia coli. Briefly: Antibacterial activity against Escherichia coli ATCC25922 by CLSI based serial dilution method.
The test system of assay [3] is Pseudomonas aeruginosa. As to the kind of experiment: Antibacterial activity against Pseudomonas aeruginosa ATCC27853 by CLSI based serial dilution method.
The test system of assay [4] is Enterococcus faecalis. Briefly: Antibacterial activity against Enterococcus faecalis ATCC29212 by CLSI based serial dilution method.
The test system of assay [5] is Staphylococcus aureus. As to the kind of experiment: Antibacterial activity against Staphylococcus aureus ATCC29213 by CLSI based serial dilution method.
Assay [6] concerns Enterococcus. Briefly: Antibacterial activity against vancomycin-resistant Enterococcus ATCC51299 by CLSI based serial dilution method.

We go through 33 compounds from ChEMBL document CHEMBL5608215, “Development of amphipathic derivatives of thymol and carvacrol as potent broad-spectrum antibacterial agents” (Eur J Med Chem, 2024).

What is called MIC is the least concentration at which growth counts as inhibited.

Converted amounts (≈) assume the structure as drawn.

Turning to `Cc1ccc(C(C)C)cc1OCCCCC[N+](C)(C)CC(=O)N(CC(C)C)CC(C)C.[Br-]`, the minimum inhibitory concentration (MIC) in assay [1] is 4 µg/mL; in assay [2], 32 µg/mL; in assay [3], 64 µg/mL; in assay [4], 4 µg/mL; in assay [5], 2 µg/mL; in assay [6] it was 64 µg/mL.
Take `Cc1ccc(C(C)C)c(OCCCCC[N+](C)(C)CC(=O)N2CCSCC2)c1.[Br-]`: the MIC in assay [1] is 32 µg/mL; in assay [2], 128 µg/mL; in assay [3] it was above 128 µg/mL; in assay [4] it was 32 µg/mL; in assay [5], 32 µg/mL; in assay [6], 128 µg/mL.
As for `Cc1ccc(C(C)C)c(OCCC[N+](C)(C)CC(=O)N2CCOCC2)c1.[Br-]`, the MIC was above 128 µg/mL in assay [1]; 128 µg/mL in assay [2]; above 128 µg/mL in assay [3]; above 128 µg/mL in assay [4]; above 128 µg/mL in assay [5]; above 128 µg/mL in assay [6].
Regarding `CCCCCCN(CCCCCC)C(=O)C[N+](C)(C)CCCOc1cc(C(C)C)ccc1C.[Br-]`, the minimum inhibitory concentration (MIC) in assay [1] stood at 8 µg/mL; in assay [2], 4 µg/mL; in assay [3], 16 µg/mL; in assay [4] it was 0.25 µg/mL; in assay [5] it was 0.25 µg/mL; in assay [6], 1 µg/mL.
Turning to `CCCNC(=O)C[N+](C)(C)CCCCOc1cc(C)ccc1C(C)C.[Br-]`, the MIC in assay [1] is 128 µg/mL; in assay [2], above 128 µg/mL; in assay [3], above 128 µg/mL; in assay [4] it was 128 µg/mL; in assay [5] it was 64 µg/mL; in assay [6], above 128 µg/mL.
For `CCCN(CCC)C(=O)C[N+](C)(C)CCCOc1cc(C(C)C)ccc1C.[Br-]`, the minimum inhibitory concentration (MIC) in assay [1] was 64 µg/mL; in assay [2] it was 128 µg/mL; in assay [3] it was above 128 µg/mL; in assay [4], 32 µg/mL; in assay [5], 32 µg/mL; in assay [6] it was 128 µg/mL.
Take `Cc1ccc(C(C)C)c(OCCC[N+](C)(C)CC(=O)N(CC(C)C)CC(C)C)c1.[Br-]`: the MIC in assay [1] is 8 µg/mL; in assay [2], 64 µg/mL; in assay [3] it was above 128 µg/mL; in assay [4], 8 µg/mL; in assay [5] it was 4 µg/mL; in assay [6] it was 16 µg/mL.
Regarding `CCCCCCCNC(=O)C[N+](C)(C)CCCCOc1cc(C(C)C)ccc1C.[Br-]`, the MIC in assay [1] worked out at 16 µg/mL; in assay [2] it was 4 µg/mL; in assay [3], 16 µg/mL; in assay [4], 2 µg/mL; in assay [5] it was 1 µg/mL; in assay [6], 4 µg/mL.
Turning to `Cc1ccc(C(C)C)cc1OCCCCC[N+](C)(C)CC(=O)N1CCOCC1.[Br-]`, the minimal inhibitory concentration (MIC) was 128 µg/mL in assay [1]; above 128 µg/mL in assay [2]; above 128 µg/mL in assay [3]; 128 µg/mL in assay [4]; 128 µg/mL in assay [5]; above 128 µg/mL in assay [6].
Take `CCCCN(CCCC)C(=O)C[N+](C)(C)CCCOc1cc(C)ccc1C(C)C.[Br-]`: the MIC in assay [1] was 8 µg/mL; in assay [2], 128 µg/mL; in assay [3], above 128 µg/mL; in assay [4], 16 µg/mL; in assay [5], 8 µg/mL; in assay [6], 32 µg/mL.
For the compound `CCCCCNC(=O)C[N+](C)(C)CCCCOc1cc(C(C)C)ccc1C.[Br-]`, the minimal inhibitory concentration (MIC) in assay [1] is 8 µg/mL; in assay [2] it was 16 µg/mL; in assay [3], 128 µg/mL; in assay [4], 8 µg/mL; in assay [5], 4 µg/mL; in assay [6], 16 µg/mL.
For the compound `CCCNC(=O)C[N+](C)(C)CCCCCOc1cc(C(C)C)ccc1C.[Br-]`, the minimal inhibitory concentration (MIC) is 128 µg/mL in assay [1]; 128 µg/mL in assay [2]; above 128 µg/mL in assay [3]; 64 µg/mL in assay [4]; 32 µg/mL in assay [5]; 128 µg/mL in assay [6].
With `CCCCN(CCCC)C(=O)C[N+](C)(C)CCCCCOc1cc(C)ccc1C(C)C.[Br-]`, the MIC in assay [1] was 2 µg/mL; in assay [2] it was 32 µg/mL; in assay [3], 128 µg/mL; in assay [4], 4 µg/mL; in assay [5], 2 µg/mL; in assay [6] it was 8 µg/mL.
Turning to `CCCCNC(=O)C[N+](C)(C)CCCCOc1cc(C)ccc1C(C)C.[Br-]`, the MIC in assay [1] was 16 µg/mL; in assay [2], 128 µg/mL; in assay [3], above 128 µg/mL; in assay [4], 64 µg/mL; in assay [5], 16 µg/mL; in assay [6] it was 128 µg/mL.
Consider `Cc1ccc(C(C)C)cc1O` [CARVACROL], for which the minimal inhibitory concentration (MIC) in assay [1] is above 128 µg/mL; in assay [2], 128 µg/mL (≈ 852 µM); in assay [3], above 128 µg/mL; in assay [4], 128 µg/mL (≈ 852 µM); in assay [5] it was above 128 µg/mL; in assay [6] it was above 128 µg/mL.
Turning to `CCCNC(=O)C[N+](C)(C)CCCOc1cc(C(C)C)ccc1C.[Br-]`, the minimal inhibitory concentration (MIC) in assay [1] was above 128 µg/mL; in assay [2], above 128 µg/mL; in assay [3] it was above 128 µg/mL; in assay [4] it was 128 µg/mL; in assay [5], 128 µg/mL; in assay [6], above 128 µg/mL.
On to `Cc1ccc(C(C)C)c(OCCCC[N+](C)(C)CC(=O)N2CCOCC2)c1.[Br-]`, for which the MIC in assay [1], in assay [2], in assay [3], in assay [4], in assay [5] and in assay [6] was above 128 µg/mL each time.
Regarding `CCCN(CCC)C(=O)C[N+](C)(C)CCCCCOc1cc(C)ccc1C(C)C.[Br-]`, the minimal inhibitory concentration (MIC) in assay [1] is 8 µg/mL; in assay [2] it was 64 µg/mL; in assay [3], above 128 µg/mL; in assay [4] it was 8 µg/mL; in assay [5] it was 8 µg/mL; in assay [6] it was 16 µg/mL.
On to `CCCCCCNC(=O)C[N+](C)(C)CCCCCOc1cc(C)ccc1C(C)C.[Br-]`, for which the MIC in assay [1] was found to be 2 µg/mL; in assay [2], 8 µg/mL; in assay [3], 32 µg/mL; in assay [4], 2 µg/mL; in assay [5], 2 µg/mL; in assay [6], 4 µg/mL.
Regarding `CCCCCCCNC(=O)C[N+](C)(C)CCCCCOc1cc(C(C)C)ccc1C.[Br-]`, the MIC in assay [1] worked out at 4 µg/mL; in assay [2] it was 4 µg/mL; in assay [3], 8 µg/mL; in assay [4], 1 µg/mL; in assay [5], 1 µg/mL; in assay [6], 2 µg/mL.
Take `CCCCN(CCCC)C(=O)C[N+](C)(C)CCCCOc1cc(C(C)C)ccc1C.[Br-]`: the MIC was found to be 4 µg/mL in assay [1]; 32 µg/mL in assay [2]; 128 µg/mL in assay [3]; 4 µg/mL in assay [4]; 2 µg/mL in assay [5]; 16 µg/mL in assay [6].
Turning to `CCCN(CCC)C(=O)C[N+](C)(C)CCCCOc1cc(C)ccc1C(C)C.[Br-]`, the MIC is 16 µg/mL in assay [1]; 128 µg/mL in assay [2]; above 128 µg/mL in assay [3]; 32 µg/mL in assay [4]; 8 µg/mL in assay [5]; 64 µg/mL in assay [6].
Consider `CCCCNC(=O)C[N+](C)(C)CCCOc1cc(C(C)C)ccc1C.[Br-]`, for which the MIC in assay [1] was 64 µg/mL; in assay [2] it was 64 µg/mL; in assay [3] it was above 128 µg/mL; in assay [4], 32 µg/mL; in assay [5] it was 32 µg/mL; in assay [6] it was 64 µg/mL.
Regarding `CCCCCCNC(=O)C[N+](C)(C)CCCCOc1cc(C)ccc1C(C)C.[Br-]`, the minimal inhibitory concentration (MIC) in assay [1] came to 1 µg/mL; in assay [2] it was 16 µg/mL; in assay [3], 64 µg/mL; in assay [4], 4 µg/mL; in assay [5] it was 2 µg/mL; in assay [6], 8 µg/mL.
Take `CCCCCNC(=O)C[N+](C)(C)CCCCOc1cc(C)ccc1C(C)C.[Br-]`: the MIC is 8 µg/mL in assay [1]; 32 µg/mL in assay [2]; above 128 µg/mL in assay [3]; 16 µg/mL in assay [4]; 8 µg/mL in assay [5]; 32 µg/mL in assay [6].
As for `CCCNC(=O)C[N+](C)(C)CCCOc1cc(C)ccc1C(C)C.[Br-]`, the MIC in assay [1] is 128 µg/mL; in assay [2] it was above 128 µg/mL; in assay [3], above 128 µg/mL; in assay [4], 128 µg/mL; in assay [5] it was 64 µg/mL; in assay [6], above 128 µg/mL.
As for `Cc1ccc(C(C)C)c(O)c1` [THYMOL], the MIC in assay [1] is above 128 µg/mL; in assay [2], 128 µg/mL (≈ 852 µM); in assay [3], above 128 µg/mL; in assay [4] it was above 128 µg/mL; in assay [5], above 128 µg/mL; in assay [6], above 128 µg/mL.
Turning to `CCCN(CCC)C(=O)C[N+](C)(C)CCCCOc1cc(C(C)C)ccc1C.[Br-]`, the minimum inhibitory concentration (MIC) was 32 µg/mL in assay [1]; 128 µg/mL in assay [2]; above 128 µg/mL in assay [3]; 32 µg/mL in assay [4]; 16 µg/mL in assay [5]; 64 µg/mL in assay [6].
For the compound `Cc1ccc(C(C)C)cc1OCCCC[N+](C)(C)CC(=O)N1CCOCC1.[Br-]`, the MIC in assay [1], in assay [2], in assay [3], in assay [4], in assay [5] and in assay [6] was above 128 µg/mL throughout.
With `CC1(C)S[C@@H]2[C@H](NC(=O)[C@H](N)c3ccccc3)C(=O)N2[C@H]1C(=O)O` [AMPICILLIN], the MIC in assay [1] was 64 µg/mL (≈ 183 µM); in assay [2], 4 µg/mL (≈ 11.4 µM); in assay [3], above 128 µg/mL; in assay [4], 0.5 µg/mL (≈ 1.43 µM); in assay [5], 0.5 µg/mL (≈ 1.43 µM); in assay [6], 16 µg/mL (≈ 45.8 µM).
For `CCCCNC(=O)C[N+](C)(C)CCCCOc1cc(C(C)C)ccc1C.[Br-]`, the MIC in assay [1] is 64 µg/mL; in assay [2], 64 µg/mL; in assay [3], above 128 µg/mL; in assay [4], 32 µg/mL; in assay [5] it was 16 µg/mL; in assay [6] it was 64 µg/mL.
Consider `CCCCCCN(CCCCCC)C(=O)C[N+](C)(C)CCCCCOc1cc(C)ccc1C(C)C.[Br-]`, for which the MIC in assay [1], in assay [2], in assay [3], in assay [4], in assay [5] and in assay [6] was above 128 µg/mL in each case.
Take `Cc1ccc(C(C)C)cc1OCCC[N+](C)(C)CC(=O)N1CCSCC1.[Br-]`: the MIC in assay [1] was 128 µg/mL; in assay [2], 128 µg/mL; in assay [3], above 128 µg/mL; in assay [4] it was 64 µg/mL; in assay [5], 64 µg/mL; in assay [6], above 128 µg/mL.
